Data as given in BigSolDB 2.1.

O=[N+]([O-])N(CCO)CCO.O=[N+]([O-])O.O=[N+]([O-])O
solubility (mole fraction)
Details	in 1,2-dichloroethane	in 1,4-dioxane	in DMSO	in acetone	in acetonitrile	in dichloromethane	in ethanol	in ethyl acetate	in methanol	in toluene
283.15 K	0.388	0.191	0.0407	0.234	0.182	0.0359	0.00314	0.131	0.00238	0.0112
288.15 K	0.441	0.245	0.0506	0.26	0.258	0.0615	0.00518	0.17	0.00469	0.0143
293.15 K	0.524	0.318	0.0633	0.321	0.314	0.109	0.00751	0.209	0.0076	0.0177
298.15 K	0.587	0.371	0.0785	0.384	0.36	0.205	0.00986	0.285	0.0106	0.0252
303.15 K	0.641	0.425	0.107	0.439	0.456	0.367	0.0118	0.31	0.0126	0.0276
308.15 K	0.704	0.488	0.132	0.536	0.519	0.448	0.0131	0.334	0.0166	0.032
313.15 K	0.787	0.562	0.163	0.645	0.558	0.515	0.0139	0.362	0.0207	0.0374
